Values after ≈ are worked out from the molar mass of the structure shown.
System: Mycobacterium tuberculosis
Assay: Antitubercular activity against multidrug resistant Mycobacterium tuberculosis
Type: functional

SMILES: O=C(N/N=C/c1ccc([N+](=O)[O-])cc1)[C@H]1CSC(c2ccc(F)cc2)N1 (stereo partly specified)
- MIC: 1.33 µM (≈ 0.498 µg/mL)
